# Target: T1, BT2 (Bacteroides thetaiotaomicron, UniProt Q8A5T1)
# T1 sequence (Q8A5T1 20-290): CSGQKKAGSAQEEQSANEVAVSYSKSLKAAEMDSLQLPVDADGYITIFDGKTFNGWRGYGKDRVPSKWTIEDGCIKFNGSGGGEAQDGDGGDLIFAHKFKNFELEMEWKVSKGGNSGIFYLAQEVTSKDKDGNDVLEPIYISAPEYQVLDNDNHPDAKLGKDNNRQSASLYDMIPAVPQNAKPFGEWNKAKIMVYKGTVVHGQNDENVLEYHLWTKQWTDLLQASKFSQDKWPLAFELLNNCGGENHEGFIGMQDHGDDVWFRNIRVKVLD
# Test: 1H-NMR, elimination
# Type: biochemical
# Conditions: elimination to 3-keto-2-hydroxy-glucal
smiles,measurement,value
CO[C@H]1O[C@H](CO)[C@@H](O)C(=O)[C@H]1O [3-keto methyl α-glucoside],"1H-NMR, elimination",while AL/BT2 do so on the α anomer
